Results reported in paper PMC7758046, “Novel piperazine–chalcone hybrids and related pyrazoline analogues targeting VEGFR-2 kinase; design, synthesis, molecular docking studies, and anticancer evaluation” (Journal of Enzyme Inhibition and Medicinal Chemistry, 2020).
“Also recorded” adds a separate entry of the source.

Tests used:
human VEGFR-2 = target: T1, human VEGFR-2 (Homo sapiens, UniProt P35968); experiment: In vitro VEGFR-2 inhibitory assay (colorimetric human VEGFR-2 ELISA, HTScan VEGF Receptor 2 Kinase Assay Kit); assay type: biochemical; details: VEGFR-2 inhibition
T1 construct: It includes active VEGFR-2 kinase; purchased HTScan VEGF Receptor 2 Kinase Assay Kit
Protocol: VEGFR is considered as an important target for the development of potential anti-cancer candidates.
On a 96-well plate, a particular VEGFR-2 antibody was seeded and 100 µL of the normal solution or compound tested was applied, incubated at room temperature for 2.5 h and washed.
Then, 100 µL of the prepared biotin antibody was added, incubated for an additional 1 h at room temperature and washed. Following, 100 µL of streptavidin solution was added at room temperature, incubated for 45 min and then, 100 µL of TMB substrate solution was applied and incubated at room temperature for 30 min. Finally, 50 µL stop solution was added and the absorption was measured at 450 nm instantly. The standard curve, the X-axis concentrations, and the Y-axis absorbance were drawn.

SR (Leukaemia) = experiment: NCI-60 single-dose anticancer screen; assay type: cell-based, human; details: 10 µM single dose; for inhibition at 10 µM: Homo sapiens, read-out: cell growth inhibition
Protocol: (§1) Six compounds were selected by the NCI, according to NCI’s DTP selection guidelines, for evaluation of their anticancer activity at a single-dose of 10 µM against 60 human tumours cell lines.
(§2) In vitro cytotoxicity was performed in NCI according to reported method.

[1] = test system: NCI/ADR-RES (Ovarian cancer); experiment: NCI-60 single-dose anticancer screen; assay type: cell-based, human; details: 10 µM single dose
Protocol: as §1, §2

SW-620 (Colon cancer) = experiment: NCI-60 single-dose anticancer screen; assay type: cell-based, human; details: 10 µM single dose
Protocol: as §1, §2

HCC-2998 (Colon cancer) = experiment: NCI-60 single-dose anticancer screen; assay type: cell-based, human; details: 10 µM single dose
Protocol: as §1, §2

[2] = test system: HOP-62 (Non-small cell lung cancer); experiment: NCI-60 single-dose anticancer screen; assay type: cell-based, human; details: 10 µM single dose
Protocol: as §1, §2

OVCAR-8 (Ovarian cancer) = experiment: NCI-60 single-dose anticancer screen; assay type: cell-based, human; details: 10 µM single dose
Protocol: as §1, §2

LOX IMVI (Melanoma) = experiment: NCI-60 single-dose anticancer screen; assay type: cell-based, human; details: 10 µM single dose
Protocol: as §1, §2

UACC-257 (Melanoma) = experiment: NCI-60 single-dose anticancer screen; assay type: cell-based, human; details: 10 µM single dose
Protocol: as §1, §2

M14 (Melanoma) = experiment: NCI-60 single-dose anticancer screen; assay type: cell-based, human; details: 10 µM single dose
Protocol: as §1, §2

[3] = test system: NCI-H23 (Non-small cell lung cancer); experiment: NCI-60 single-dose anticancer screen; assay type: cell-based, human; details: 10 µM single dose
Protocol: as §1, §2

HS 578T (Breast cancer) = experiment: NCI-60 single-dose anticancer screen; assay type: cell-based, human; details: 10 µM single dose
Protocol: as §1, §2

MOLT-4 (Leukaemia) = experiment: NCI-60 single-dose anticancer screen; assay type: cell-based, human; details: 10 µM single dose
Protocol: as §1, §2

786-0 (Renal cancer) = experiment: NCI-60 single-dose anticancer screen; assay type: cell-based, human; details: 10 µM single dose
Protocol: as §1, §2

SNB-19 (CNS cancer) = experiment: NCI-60 single-dose anticancer screen; assay type: cell-based, human; details: 10 µM single dose
Protocol: as §1, §2

HCT-116 cells [4] = experiment: Cell cycle analysis by DNA flow cytometry; assay type: cell-based, human; details: 10 µM; for %Pre-G1 / %G2/M / %S / %G0/G1: 24 h; for %Pre-G1: control 1.97; for %G2/M: control 15.44; for %S: control 30.18; for %G0/G1: control 54.38
Protocol: Flow cytometric analysis is considered a valuable method for determining and analysing the cell cycle parameters. […] The effect on the cell cycle distribution was assessed by a DNA flow cytometry analysis and the cell cycle parameters were compared to untreated control cells in HCT-116 cells which had been incubated with 10 µM of Vd and Ve compounds and the results are shown in Table 3 and Figure 3.
HCT-116 cells were seeded at concentrations of 1 × 10^5 cells per well in a six-well plate, then incubated for 24 h. The cells were treated for 24 h with vehicles (0.1% DMSO) or 10 µM of Vd or Ve compounds. Using ice-cold, 70% ethanol at 4 °C, cells were harvested and fixed for 12 h after that. Ethanol removal and cold PBS washing of the cells were done. Then incubated in 0.5 mL of PBS containing 1 mg/mL Ranse for 30 min at 37 °C. In the dark, the cells were stained with PI for 30 min. Flow cytometer was then used to detect contents of DNA[62].

HCT-116 cells [5] = experiment: Annexin V-FITC/PI apoptosis assay; details: for Apoptosis Early: control 0.51; for Necrosis: control 1.21; for Apoptosis Total: control 1.97

T1 sequence (P35968 20-1356): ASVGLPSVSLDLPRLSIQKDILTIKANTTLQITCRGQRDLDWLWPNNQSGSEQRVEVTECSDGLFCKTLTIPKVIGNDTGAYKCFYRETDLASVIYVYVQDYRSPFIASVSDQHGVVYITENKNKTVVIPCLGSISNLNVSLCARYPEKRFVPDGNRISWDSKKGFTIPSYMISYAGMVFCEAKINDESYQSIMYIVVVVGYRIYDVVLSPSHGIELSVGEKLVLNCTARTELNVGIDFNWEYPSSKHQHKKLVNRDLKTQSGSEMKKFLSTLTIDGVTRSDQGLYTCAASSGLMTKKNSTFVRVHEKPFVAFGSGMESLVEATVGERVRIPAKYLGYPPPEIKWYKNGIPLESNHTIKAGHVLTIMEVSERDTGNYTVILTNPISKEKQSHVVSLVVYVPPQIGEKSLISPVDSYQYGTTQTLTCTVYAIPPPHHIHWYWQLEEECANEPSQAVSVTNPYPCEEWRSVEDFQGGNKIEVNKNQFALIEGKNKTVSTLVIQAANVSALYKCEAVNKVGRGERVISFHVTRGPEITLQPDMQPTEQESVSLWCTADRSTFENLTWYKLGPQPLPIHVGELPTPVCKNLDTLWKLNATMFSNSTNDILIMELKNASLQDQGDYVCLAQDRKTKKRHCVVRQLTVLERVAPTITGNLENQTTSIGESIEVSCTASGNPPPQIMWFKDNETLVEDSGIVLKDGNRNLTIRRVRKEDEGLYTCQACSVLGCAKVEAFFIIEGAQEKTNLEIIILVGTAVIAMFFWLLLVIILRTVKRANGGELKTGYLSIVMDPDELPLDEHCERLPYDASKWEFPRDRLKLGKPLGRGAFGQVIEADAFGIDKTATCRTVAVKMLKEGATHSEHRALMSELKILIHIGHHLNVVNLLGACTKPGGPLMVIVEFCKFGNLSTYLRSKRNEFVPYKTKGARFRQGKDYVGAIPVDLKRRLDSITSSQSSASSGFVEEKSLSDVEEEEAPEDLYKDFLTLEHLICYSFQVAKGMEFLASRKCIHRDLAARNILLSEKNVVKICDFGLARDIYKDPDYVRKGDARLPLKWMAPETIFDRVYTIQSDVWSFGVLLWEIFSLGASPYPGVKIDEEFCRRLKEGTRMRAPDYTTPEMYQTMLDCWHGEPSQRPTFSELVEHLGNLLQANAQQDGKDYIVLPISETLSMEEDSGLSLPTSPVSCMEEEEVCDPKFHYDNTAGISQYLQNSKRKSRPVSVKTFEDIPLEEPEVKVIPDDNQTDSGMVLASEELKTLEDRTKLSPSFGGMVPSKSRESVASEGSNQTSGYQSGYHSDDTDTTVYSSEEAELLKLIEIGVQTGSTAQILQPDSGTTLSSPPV

SMILES	IC50 (human VEGFR-2)	cell growth promotion (SR (Leukaemia))	inhibition at 10 µM (SR (Leukaemia))	cell growth promotion [1]	cell growth promotion (SW-620 (Colon cancer))	cell growth promotion (HCC-2998 (Colon cancer))	cell growth promotion [2]	cell growth promotion (OVCAR-8 (Ovarian cancer))	cell growth promotion (LOX IMVI (Melanoma))	cell growth promotion (UACC-257 (Melanoma))	cell growth promotion (M14 (Melanoma))	cell growth promotion [3]	cell growth promotion (HS 578T (Breast cancer))	cell growth promotion (MOLT-4 (Leukaemia))	cell growth promotion (786-0 (Renal cancer))	cell growth promotion (SNB-19 (CNS cancer))	melting point	Comment (cell cycle arrest phase) (HCT-116 cells [4])	%Pre-G1 (HCT-116 cells [4])	%G2/M (HCT-116 cells [4])	also measured
O=C(C=Cc1ccncc1F)c1ccc(N2CCNCC2)cc1 [Vf, 3-(3-Fluoropyridin-4-yl)-1-(4-(piperazin-1-yl)phenyl)prop-2-en-1-one]	1330 nM	92.99%	7.01%	107.53%	105.59%	100.88%	102.01%	95.35%	103.22%	70.86%	95.53%	102.52%	99.19%	91.63%	103.38%	96.07%	225 °C	–	–	–	–
Fc1cnccc1C1CC(c2ccc(N3CCNCC3)cc2)=NN1 (stereo not drawn) [VIc, 1-(4-(5-(3-Fluoropyridin-4-yl)-4,5-dihydro-1H-pyrazol-3-yl)phenyl) piperazine]	1310 nM	90.38%	–	106.03%	93.46%	101.72%	83.16%	95.06%	94.31%	83.07%	95.86%	83.85%	89.15%	74.15%	111.09%	97.45%	135 °C	–	–	–	–
COc1cc(C2CC(c3ccc(N4CCNCC4)cc3)=NN2)ccc1F (stereo not drawn) [VIb, 1-(4-(5-(4-Fluoro-3-methoxyphenyl)-4,5-dihydro-1H-pyrazol-3-yl)phenyl) piperazine]	1060 nM	67.42%	–	104.69%	91.67%	104.57%	86.01%	84.09%	79.56%	80.93%	84.68%	75.49%	84.17%	72.10%	94.50%	95.65%	195 °C	–	–	–	–
COc1cc(C=CC(=O)c2ccc(N3CCNCC3)cc2)ccc1F [Ve, 3-(4-Fluoro-3-methoxyphenyl)-1-(4-(piperazin-1-yl)phenyl) prop-2-en-1-one]	570 nM	46.22%	53.8%	79.31%	50.69%	100.21%	101.42%	57.23%	49.01%	76.08%	78.43%	92.63%	91.26%	80.75%	87.22%	59.87%	–	arrest HCT-116 cell cycle in the G2/M phase; also recorded: induced cell arrest at G2/M phase	18.22%	46.85%	%S (HCT-116 cells [4]): 28.58%; %G0/G1 (HCT-116 cells [4]): 24.57%; total increase in apoptosis compared to the control (HCT-116 cells [5]): ~21.2 fold; Apoptosis Early (HCT-116 cells [5]; 10 µM, 24 h): 4.76%; Necrosis (HCT-116 cells [5]; 10 µM, 24 h): 2.11%; Apoptosis Total (HCT-116 cells [5]; 10 µM, 24 h): 18.22%
O=C(C=Cc1cccc(F)c1)c1ccc(N2CCNCC2)cc1 [Vd, 3-(3-Fluorophenyl)-1-(4-(piperazin-1-yl)phenyl)prop-2-en-1-one]	800 nM	55.72%	44.3%	109.37%	61.08%	94.99%	80.17%	67.16%	71.13%	75.92%	81.16%	77.30%	79.41%	68.62%	85.24%	71.95%	–	arrest HCT-116 cell cycle in the G2/M phase; also recorded: induced cell arrest at G2/M phase	16.54%	50.44%	%S (HCT-116 cells [4]): 27.78%; %G0/G1 (HCT-116 cells [4]): 21.78%; total increase in apoptosis compared to the control (HCT-116 cells [5]): approximately 18.7 fold; Apoptosis Late (HCT-116 cells [5]; 10 µM, 24 h, control 0.25): 10.32%; Apoptosis Early (HCT-116 cells [5]; 10 µM, 24 h): 3.92%; Necrosis (HCT-116 cells [5]; 10 µM, 24 h): 2.3%; Apoptosis Total (HCT-116 cells [5]; 10 µM, 24 h): 16.54%
N#Cc1ccccc1C1CC(c2ccc(N3CCNCC3)cc2)=NN1 (stereo not drawn) [VIa, 2-(3-(4-(Piperazin-1-yl)phenyl)-4,5-dihydro-1H-pyrazol-5-yl)benzonitrile]	1480 nM	94.43%	5.57%	102.72%	94.11%	96.75%	86.44%	90.36%	99.03%	85.21%	104.47%	91.73%	91.67%	96.02%	106.73%	95.34%	165 °C	–	–	–	–
